# Test results taken from PMC6925736, “Development of a HPLC-MS/MS Method to Determine the 13 Elements of Semen Cuscutae and Application to a Pharmacokinetic Study in Rats” (Evidence-based Complementary and Alternative Medicine : eCAM, 2019).
# Key:
# [1] = Stability of analytes in rat plasma QC samples under processing and storage conditions; type: in vitro ADME; conditions: n = 6; for Measured concentration, room temperature for 4h / Measured concentration, three freeze-thaw / Measured concentration, −70°C for 21 days: rat plasma; for Measured concentration, autosampler for 12h: treated rat plasma sample
# Protocol: The stability of the 13 analytes was evaluated by QC samples in different processing and storage conditions, including short-term stability (putting the analytes in ambient temperature for 4 h and storing analytes in autosampler for 12 h after treatment), long-term stability (storing the analytes at −70°C for 21 days) and subjecting analytes to three freeze-thaw cycles. All stability experiments were tested in six parallels with low, middle, and high concentrations.
# [2] = Pharmacokinetic study in rats after oral administration of Semen Cuscutae extract (HPLC-MS/MS of plasma); type: in vivo, Sprague–Dawley rats; conditions: rat plasma, oral Semen Cuscutae extract 13 g/kg; for plasma concentration after 15 minutes of intragastric administration: LLOQ 1 ng/mL
# Protocol: 20 μL of methanol, 20 μL of IS (liquiritin, 200 ng/mL) and 20 μL of formic acid were added to 100 μL of plasma sample and then vortex-mixed. The mixture was extracted with 800 μL of acetonitrile by vortexing for 3 min. After centrifugation at 14000 rpm for 10 min, the supernatant was transferred to a clean glass tube and dried with nitrogen. The residue was reconstituted in 100 μL of methanol and then centrifuged at 14000 rpm for 10 min. 5 μL of supernatant was injected into the LC–MS/MS system for analysis.
# Six Sprague–Dawley rats (SPF, 200 ± 10 g, male) were purchased from HFK Laboratory Animal Technology Co., Ltd. The rats were housed in a standard laboratory condition (12 h dark-light cycle; temperature was 25°C ± 2°C and humidity was kept 50 ± 5%) and fed standard dry pellet diet and water for one week for acclimatization. Before the experiments, the rats were in fasting state for 12 h, with free access to water. The Semen Cuscutae extracts were dissolved in 0.5% carboxymethyl cellulose-sodium, prepared into suspension and gavage to the rats at a dose of 13 g/kg. Approximately 200 μL of rat blood samples was collected from the orbital venous plexus at 0, 0.03, 0.08, 0.17, 0.25, 0.5, 1, 2, 4, 6, 8, 10, 12, 24, 36, and 48 h after oral administration into 1.5 mL heparinized centrifuge tube. After centrifugation at 7000 rpm for 10 min immediately, the supernatant was collected into a new centrifuge tube and stored at −70°C until analysis.
# Pharmacokinetic parameters (Cmax, t1/2, Tmax, AUC(0-tn), and AUC(0-∞)) were obtained using the software “Drug and Statistics 3.0” (DAS 3.0) (Medical College of Wannan, China).
Compound,"Measured concentration, room temperature for 4h ([1]; spiked 2 ng/mL)","Measured concentration, three freeze-thaw ([1]; spiked 2 ng/mL)","Measured concentration, −70°C for 21 days ([1]; spiked 2 ng/mL)","Measured concentration, room temperature for 4h ([1]; spiked 25 ng/mL)","Measured concentration, three freeze-thaw ([1]; spiked 25 ng/mL)","Measured concentration, −70°C for 21 days ([1]; spiked 25 ng/mL)","Measured concentration, room temperature for 4h ([1]; spiked 250 ng/mL)","Measured concentration, three freeze-thaw ([1]; spiked 250 ng/mL)","Measured concentration, −70°C for 21 days ([1]; spiked 250 ng/mL)","Measured concentration, autosampler for 12h ([1]; spiked 2 ng/mL)","Measured concentration, autosampler for 12h ([1]; spiked 25 ng/mL)","Measured concentration, autosampler for 12h ([1]; spiked 250 ng/mL)",plasma concentration after 15 minutes of intragastric administration [2],"AUC(0-inf) ([2]; male, Sprague-Dawley, n = 6)","Cmax ([2]; male, Sprague-Dawley, n = 6)","AUC ([2]; male, Sprague-Dawley, n = 6, read-out: AUC(0-tn))",T max ([2]; n = 6),t 1/2 ([2]; n = 6),"T max ([2]; n = 6, listed as hyperoside)","t 1/2 ([2]; n = 6, listed as hyperoside)"
O=c1cc(-c2ccc(O)cc2)oc2cc(O)cc(O)c12 [Apigenin],2.2 ± 0.1 ng/mL,2.0 ± 0.1 ng/mL,2.1 ± 0.1 ng/mL,26.4 ± 1.2 ng/mL,25.7 ± 2.0 ng/mL,26.5 ± 1.3 ng/mL,249.3 ± 12.8 ng/mL,262.2 ± 16.0 ng/mL,257.8 ± 8.2 ng/mL,2.1 ± 0.2 ng/mL,25.0 ± 1.2 ng/mL,248.5 ± 4.9 ng/mL,lower than the LLOQ,–,–,–,–,–,–,–
O=c1c(O[C@@H]2O[C@H](CO)[C@H](O)[C@H](O)[C@H]2O)c(-c2ccc(O)c(O)c2)oc2cc(O)cc(O)c12 [Hyperoside],2.0 ± 0.1 ng/mL,2.1 ± 0.1 ng/mL,1.9 ± 0.1 ng/mL,23.0 ± 1.2 ng/mL,26.2 ± 1.5 ng/mL,26.4 ± 1.8 ng/mL,244.4 ± 14.3 ng/mL,254.7 ± 9.7 ng/mL,256.4 ± 15.8 ng/mL,1.8 ± 0.1 ng/mL,23.6 ± 0.7 ng/mL,230.2 ± 13.1 ng/mL,–,754 ± 424 ng·h/mL,29.8 ± 12.8 ng/mL,684 ± 407 ng·h/mL,10.2 ± 4.2 min,21.6 ± 13.8 min,less than 1 h,less than 1.5 h
C[C@@H]1O[C@@H](Oc2c(-c3ccc(O)c(O)c3)oc3cc(O)cc(O)c3c2=O)[C@H](O)[C@H](O)[C@H]1O [Quercitrin],2.1 ± 0.1 ng/mL,2.3 ± 0.1 ng/mL,2.0 ± 0.1 ng/mL,26.3 ± 0.7 ng/mL,26.9 ± 1.5 ng/mL,26.5 ± 0.5 ng/mL,252.5 ± 9.1 ng/mL,261.4 ± 10.3 ng/mL,247.9 ± 5.3 ng/mL,2.1 ± 0.1 ng/mL,26.4 ± 0.9 ng/mL,253.1 ± 4.7 ng/mL,lower than the LLOQ,–,–,–,–,–,–,–

# Now from value to compound, other results behind:
"Measured concentration, room temperature for 4h ([1]; spiked 2 ng/mL)","Measured concentration, three freeze-thaw ([1]; spiked 2 ng/mL)","Measured concentration, −70°C for 21 days ([1]; spiked 2 ng/mL)","Measured concentration, room temperature for 4h ([1]; spiked 25 ng/mL)","Measured concentration, three freeze-thaw ([1]; spiked 25 ng/mL)","Measured concentration, −70°C for 21 days ([1]; spiked 25 ng/mL)","Measured concentration, room temperature for 4h ([1]; spiked 250 ng/mL)","Measured concentration, three freeze-thaw ([1]; spiked 250 ng/mL)","Measured concentration, −70°C for 21 days ([1]; spiked 250 ng/mL)","Measured concentration, autosampler for 12h ([1]; spiked 2 ng/mL)","Measured concentration, autosampler for 12h ([1]; spiked 25 ng/mL)","Measured concentration, autosampler for 12h ([1]; spiked 250 ng/mL)",plasma concentration after 15 minutes of intragastric administration [2],Compound,"AUC(0-inf) ([2]; male, Sprague-Dawley, n = 6)","Cmax ([2]; male, Sprague-Dawley, n = 6)","AUC ([2]; male, Sprague-Dawley, n = 6, read-out: AUC(0-tn))",T max ([2]; n = 6),t 1/2 ([2]; n = 6),"T max ([2]; n = 6, listed as hyperoside)","t 1/2 ([2]; n = 6, listed as hyperoside)"
2.0 ± 0.1 ng/mL,2.0 ± 0.1 ng/mL,2.0 ± 0.1 ng/mL,27.0 ± 1.8 ng/mL,26.2 ± 0.3 ng/mL,25.5 ± 1.2 ng/mL,260.4 ± 3.3 ng/mL,248.9 ± 6.5 ng/mL,244.4 ± 7.4 ng/mL,2.1 ± 0.1 ng/mL,27.3 ± 0.6 ng/mL,251.2 ± 9.7 ng/mL,lower than the LLOQ,O=C(/C=C/c1ccc(O)c(O)c1)O[C@H]1[C@H](O)C[C@](O)(C(=O)O)C[C@H]1O [Cryptochlorogenic acid],–,–,–,–,–,–,–
2.2 ± 0.1 ng/mL,2.0 ± 0.1 ng/mL,1.9 ± 0.1 ng/mL,26.2 ± 0.7 ng/mL,27.3 ± 0.6 ng/mL,25.6 ± 0.9 ng/mL,254.9 ± 11.8 ng/mL,253.2 ± 5.0 ng/mL,260.0 ± 6.2 ng/mL,2.3 ± 0.1 ng/mL,26.6 ± 0.7 ng/mL,245.3 ± 11.6 ng/mL,lower than the LLOQ,O=c1c(O)c(-c2ccc(O)c(O)c2)oc2cc(O)cc(O)c12 [Quercetin],–,–,–,–,–,–,–
2.2 ± 0.2 ng/mL,2.0 ± 0.2 ng/mL,2.0 ± 0.1 ng/mL,24.8 ± 0.3 ng/mL,26.2 ± 1.6 ng/mL,25.7 ± 0.8 ng/mL,247.5 ± 6.3 ng/mL,252.6 ± 7.5 ng/mL,257.2 ± 6.4 ng/mL,2.1 ± 0.2 ng/mL,25.4 ± 2.5 ng/mL,254.0 ± 4.9 ng/mL,lower than the LLOQ,O=c1c(O)c(-c2ccc(O)cc2)oc2cc(O)cc(O)c12 [Kaempferol],–,–,–,–,–,–,–
